The values below come from patent US20260242419A1, “A CYCLIC PEPTIDE FOR TRAPPING INTERLEUKIN-1 BETA” (Merck Sharp & Dohme LLC, priority 2023, published 2026).

Starred links: 1 amine or outer side, 2 acyl side, 3 side chain; linkers in the order of their positions; H or OH if unused. Non-standard residues stand in square brackets, D forms with d. Residues, ends and D or L forms follow the SMILES beside them. Groups on a side chain read outwards from the residue. *: point of attachment. dPro(4R-(4-pyridylmethyl)) = O=C(O)[C@H]1C[C@@H](Cc2ccncc2)CN1; Benzoyl(4-piperazinyl) = O=C(c1ccc(N2CCN([*:1])CC2)cc1)[*:2]; Trp(βS-Me,4-F) = C[C@@H](c1c[nH]c2cccc(F)c12)[C@H](N)C(=O)O; Bip(4'-COOH) = N[C@@H](Cc1ccc(-c2ccc(C(=O)O)cc2)cc1)C(=O)O; dPro(4R-Bzl(4-F)) = O=C(O)[C@H]1C[C@@H](Cc2ccc(F)cc2)CN1; dPro(3S-(4-F-Bn)) = O=C(O)[C@@H]1NCC[C@@H]1Cc1ccc(F)cc1; Ala(pyrimidin-5-yl) = N[C@@H](Cc1cncnc1)C(=O)O; Phe(4-COOH) = N[C@@H](Cc1ccc(C(=O)O)cc1)C(=O)O; Lys(Me3) = C[N+](C)(C)CCCC[C@H](N)C(=O)O; Phe(3-Cl) = N[C@@H](Cc1cccc(Cl)c1)C(=O)O; Phe(4-Br) = N[C@@H](Cc1ccc(Br)cc1)C(=O)O; Pro(cis-4-F) = O=C(O)[C@@H]1C[C@H](F)CN1; Cyclohexanecarbonyl = O=C(C1CCCCC1)*; AEF = NCCOc1ccc(C[C@H](N)C(=O)O)cc1; d(αMeD) = C[C@@](N)(CC(=O)O)C(=O)O; Pyrazinecarbonyl = O=C(c1cnccn1)*; 4Pal = N[C@@H](Cc1ccncc1)C(=O)O; Isonicotinoyl = O=C(c1ccncc1)*; Dab = NCC[C@H](N)C(=O)O; Aib = CC(C)(N)C(=O)O; Inp = O=C(O)C1CCNCC1; Piv = CC(C)(C)C(=O)*; X50 = O=C(c1ccncn1)*; Bz = O=C(c1ccccc1)*; X2 = O=C(c1ncccn1)*

The target of one test is T1, IL-1β (Homo sapiens, UniProt P01584).
T1 construct: purchased BioLegend 579404
T1 sequence (P01584 117-269): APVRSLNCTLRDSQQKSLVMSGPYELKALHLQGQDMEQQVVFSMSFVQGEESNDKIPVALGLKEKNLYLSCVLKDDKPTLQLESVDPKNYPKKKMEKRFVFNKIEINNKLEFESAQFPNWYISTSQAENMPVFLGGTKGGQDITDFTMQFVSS
Kind of test: IL-6 assay in MRC5 cells: inhibition of IL-1β induced IL-6 secretion (AlphaLISA). It counts as cell-based. Particulars: inhibition of IL-1β induced IL-6 secretion in MRC5 cells; compound pre-incubated 1 hour with recombinant human IL-1β; read-out: MRC5 IC50. In short, it runs like this:
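Compound was pre-incubated 1 h at ambient temperature with recombinant human IL-1β at 2λ EC80 before adding human lung fibroblast MRC5 cells (3000/well) in EMEM with 0.025% BSA. After overnight culture at 37 °C, 5% CO2, secreted IL-6 in conditioned medium was measured by AlphaLISA; IC50 from 4-parameter logistic fits.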
Regarding `C[C@@H](c1c[nH]c2cccc(F)c12)[C@@H]1NC(=O)[C@@H]2C[C@H](F)CN2C(=O)CNC(=O)[C@H](Cc2ccc(C(=O)O)cc2)NC(=O)[C@H](Cc2ccncc2)NC(=O)[C@H](Cc2ccc(-c3ccc(C(=O)O)cc3)cc2)NC(=O)[C@H]2C[C@@H](Cc3ccc(F)cc3)CN2C(=O)CNC(=O)[C@H](CCN)NC(=O)[C@H](CCC(N)=O)NC(=O)[C@H](CCCC[N+](C)(C)C)NC(=O)C(C)(C)NC(=O)[C@H](Cc2c[nH]c3ccccc23)NC(=O)[C@H](CO)NC(=O)C(C)(C)NC1=O` [Example 298] (cyclo([Bip(4'-COOH)][4Pal][Phe(4-COOH)]G[Pro(cis-4-F)][Trp(βS-Me,4-F)][Aib]SW[Aib][Lys(Me3)]Q[Dab]G[dPro(4R-Bzl(4-F))])), the IC50 stood at 0.015 nM. The same measure, in the same setting: with `C[C@@H](c1c[nH]c2cccc(F)c12)[C@@H]1NC(=O)[C@@H]2C[C@H](F)CN2C(=O)CNC(=O)[C@H](Cc2ccc(C(=O)O)cc2)NC(=O)[C@H](Cc2ccncc2)NC(=O)[C@H](Cc2ccc(Br)cc2)NC(=O)[C@H]2[C@@H](Cc3ccc(F)cc3)CCN2C(=O)CNC(=O)[C@H](CCN)NC(=O)[C@H](CCC(N)=O)NC(=O)[C@H](Cc2cncnc2)NC(=O)[C@@](C)(CC(=O)O)NC(=O)[C@H](Cc2c[nH]c3ccccc23)NC(=O)[C@H](CO)NC(=O)C(C)(C)NC1=O` [Example 299] (cyclo([Phe(4-Br)][4Pal][Phe(4-COOH)]G[Pro(cis-4-F)][Trp(βS-Me,4-F)][Aib]SW[d(αMeD)][Ala(pyrimidin-5-yl)]Q[Dab]G[dPro(3S-(4-F-Bn))])) the figure was 0.012 nM; with `C[C@@H](c1c[nH]c2cccc(F)c12)[C@@H]1NC(=O)[C@@H]2C[C@H](F)CN2C(=O)CNC(=O)[C@H](Cc2ccc(C(=O)O)cc2)NC(=O)[C@H](Cc2ccncc2)NC(=O)[C@H](Cc2ccc(OCCNC(=O)C(C)(C)C)cc2)NC(=O)[C@H]2C[C@@H](Cc3ccncc3)CN2C(=O)CNC(=O)[C@H](CCN)NC(=O)[C@H](CCC(N)=O)NC(=O)[C@H](Cc2cncnc2)NC(=O)C(C)(C)NC(=O)[C@H](Cc2c[nH]c3ccccc23)NC(=O)[C@H](CO)NC(=O)C(C)(C)NC1=O` [Example 300] (cyclo([AEF](Piv)[4Pal][Phe(4-COOH)]G[Pro(cis-4-F)][Trp(βS-Me,4-F)][Aib]SW[Aib][Ala(pyrimidin-5-yl)]Q[Dab]G[dPro(4R-(4-pyridylmethyl))])), 0.013 nM.

For the compound `C[C@@H](c1c[nH]c2cccc(F)c12)[C@@H]1NC(=O)[C@@H]2C[C@H](F)CN2C(=O)CNC(=O)[C@H](Cc2ccc(C(=O)O)cc2)NC(=O)[C@H](Cc2ccncc2)NC(=O)[C@H](Cc2ccc(OCCNC(=O)C3CCCCC3)cc2)NC(=O)[C@H]2C[C@@H](Cc3ccncc3)CN2C(=O)CNC(=O)[C@H](CCN)NC(=O)[C@H](CCC(N)=O)NC(=O)[C@H](Cc2cncnc2)NC(=O)C(C)(C)NC(=O)[C@H](Cc2c[nH]c3ccccc23)NC(=O)[C@H](CO)NC(=O)C(C)(C)NC1=O` [Example 301] (cyclo([AEF](Cyclohexanecarbonyl)[4Pal][Phe(4-COOH)]G[Pro(cis-4-F)][Trp(βS-Me,4-F)][Aib]SW[Aib][Ala(pyrimidin-5-yl)]Q[Dab]G[dPro(4R-(4-pyridylmethyl))])), the IC50 worked out at 0.017 nM. Still for that read-out and setting: with `CC(=O)N1CCC(C(=O)NCCOc2ccc(C[C@@H]3NC(=O)[C@H]4C[C@@H](Cc5ccncc5)CN4C(=O)CNC(=O)[C@H](CCN)NC(=O)[C@H](CCC(N)=O)NC(=O)[C@H](Cc4cncnc4)NC(=O)C(C)(C)NC(=O)[C@H](Cc4c[nH]c5ccccc45)NC(=O)[C@H](CO)NC(=O)C(C)(C)NC(=O)[C@H]([C@@H](C)c4c[nH]c5cccc(F)c45)NC(=O)[C@@H]4C[C@H](F)CN4C(=O)CNC(=O)[C@H](Cc4ccc(C(=O)O)cc4)NC(=O)[C@H](Cc4ccncc4)NC3=O)cc2)CC1` [Example 302] (cyclo([AEF]([Inp-Ac])[4Pal][Phe(4-COOH)]G[Pro(cis-4-F)][Trp(βS-Me,4-F)][Aib]SW[Aib][Ala(pyrimidin-5-yl)]Q[Dab]G[dPro(4R-(4-pyridylmethyl))])) the figure was 0.017 nM. The same measure, in the same setting: the result for `C[C@@H](c1c[nH]c2cccc(F)c12)[C@@H]1NC(=O)[C@@H]2C[C@H](F)CN2C(=O)CNC(=O)[C@H](Cc2ccc(C(=O)O)cc2)NC(=O)[C@H](Cc2ccncc2)NC(=O)[C@H](Cc2ccc(OCCNC(=O)c3cnccn3)cc2)NC(=O)[C@H]2C[C@@H](Cc3ccncc3)CN2C(=O)CNC(=O)[C@H](CCN)NC(=O)[C@H](CCC(N)=O)NC(=O)[C@H](Cc2cncnc2)NC(=O)C(C)(C)NC(=O)[C@H](Cc2c[nH]c3ccccc23)NC(=O)[C@H](CO)NC(=O)C(C)(C)NC1=O` [Example 303] (cyclo([AEF](Pyrazinecarbonyl)[4Pal][Phe(4-COOH)]G[Pro(cis-4-F)][Trp(βS-Me,4-F)][Aib]SW[Aib][Ala(pyrimidin-5-yl)]Q[Dab]G[dPro(4R-(4-pyridylmethyl))])) reads 0.016 nM.

Still in this test, the particulars now being: inhibition of IL-1β induced IL-6 secretion in MRC5 cells; read-out: MRC5 IC50.
As to `C[C@@H](c1c[nH]c2cccc(F)c12)[C@@H]1NC(=O)[C@@H]2C[C@H](F)CN2C(=O)CNC(=O)[C@H](Cc2ccc(C(=O)O)cc2)NC(=O)[C@H](Cc2ccncc2)NC(=O)[C@H](Cc2ccc(OCCNC(=O)c3ncccn3)cc2)NC(=O)[C@H]2C[C@@H](Cc3ccncc3)CN2C(=O)CNC(=O)[C@H](CCN)NC(=O)[C@H](CCC(N)=O)NC(=O)[C@H](Cc2cncnc2)NC(=O)C(C)(C)NC(=O)[C@H](Cc2c[nH]c3ccccc23)NC(=O)[C@H](CO)NC(=O)C(C)(C)NC1=O` [Example 304] (cyclo([AEF](X2)[4Pal][Phe(4-COOH)]G[Pro(cis-4-F)][Trp(βS-Me,4-F)][Aib]SW[Aib][Ala(pyrimidin-5-yl)]Q[Dab]G[dPro(4R-(4-pyridylmethyl))])), the IC50 stood at 0.014 nM. On the same count and under the same terms, with `C[C@@H](c1c[nH]c2cccc(F)c12)[C@@H]1NC(=O)[C@@H]2C[C@H](F)CN2C(=O)CNC(=O)[C@H](Cc2ccc(C(=O)O)cc2)NC(=O)[C@H](Cc2ccncc2)NC(=O)[C@H](Cc2ccc(OCCNC(=O)c3ccncn3)cc2)NC(=O)[C@H]2C[C@@H](Cc3ccncc3)CN2C(=O)CNC(=O)[C@H](CCN)NC(=O)[C@H](CCC(N)=O)NC(=O)[C@H](Cc2cncnc2)NC(=O)C(C)(C)NC(=O)[C@H](Cc2c[nH]c3ccccc23)NC(=O)[C@H](CO)NC(=O)C(C)(C)NC1=O` [Example 305] (cyclo([AEF](X50)[4Pal][Phe(4-COOH)]G[Pro(cis-4-F)][Trp(βS-Me,4-F)][Aib]SW[Aib][Ala(pyrimidin-5-yl)]Q[Dab]G[dPro(4R-(4-pyridylmethyl))])) the figure was 0.016 nM; with `C[C@@H](c1c[nH]c2cccc(F)c12)[C@@H]1NC(=O)[C@@H]2C[C@H](F)CN2C(=O)CNC(=O)[C@H](Cc2ccc(C(=O)O)cc2)NC(=O)[C@H](Cc2ccncc2)NC(=O)[C@H](Cc2ccc(OCCNC(=O)c3ccc(N4CCNCC4)cc3)cc2)NC(=O)[C@H]2C[C@@H](Cc3ccncc3)CN2C(=O)CNC(=O)[C@H](CCN)NC(=O)[C@H](CCC(N)=O)NC(=O)[C@H](Cc2cncnc2)NC(=O)C(C)(C)NC(=O)[C@H](Cc2c[nH]c3ccccc23)NC(=O)[C@H](CO)NC(=O)C(C)(C)NC1=O` [Example 306] (cyclo([AEF](Benzoyl(4-piperazinyl))[4Pal][Phe(4-COOH)]G[Pro(cis-4-F)][Trp(βS-Me,4-F)][Aib]SW[Aib][Ala(pyrimidin-5-yl)]Q[Dab]G[dPro(4R-(4-pyridylmethyl))])), 0.02 nM.

As to `C[C@@H](c1c[nH]c2cccc(F)c12)[C@@H]1NC(=O)[C@@H]2C[C@H](F)CN2C(=O)CNC(=O)[C@H](Cc2ccc(C(=O)O)cc2)NC(=O)[C@H](Cc2ccncc2)NC(=O)[C@H](Cc2ccc(OCCNC(=O)c3ccncc3)cc2)NC(=O)[C@H]2C[C@@H](Cc3ccncc3)CN2C(=O)CNC(=O)[C@H](CCN)NC(=O)[C@H](CCC(N)=O)NC(=O)[C@H](Cc2cncnc2)NC(=O)C(C)(C)NC(=O)[C@H](Cc2c[nH]c3ccccc23)NC(=O)[C@H](CO)NC(=O)C(C)(C)NC1=O` [Example 307] (cyclo([AEF](Isonicotinoyl)[4Pal][Phe(4-COOH)]G[Pro(cis-4-F)][Trp(βS-Me,4-F)][Aib]SW[Aib][Ala(pyrimidin-5-yl)]Q[Dab]G[dPro(4R-(4-pyridylmethyl))])), the IC50 was found to be 0.018 nM. Still for that read-out and setting: with `C[C@@H](c1c[nH]c2cccc(F)c12)[C@@H]1NC(=O)[C@@H]2C[C@H](F)CN2C(=O)CNC(=O)[C@H](Cc2ccc(C(=O)O)cc2)NC(=O)[C@H](Cc2ccncc2)NC(=O)[C@H](Cc2ccc(OCCNC(=O)c3ccccc3)cc2)NC(=O)[C@H]2C[C@@H](Cc3ccncc3)CN2C(=O)CNC(=O)[C@H](CCN)NC(=O)[C@H](CCC(N)=O)NC(=O)[C@H](Cc2cncnc2)NC(=O)C(C)(C)NC(=O)[C@H](Cc2c[nH]c3ccccc23)NC(=O)[C@H](CO)NC(=O)C(C)(C)NC1=O` [Example 308] (cyclo([AEF](Bz)[4Pal][Phe(4-COOH)]G[Pro(cis-4-F)][Trp(βS-Me,4-F)][Aib]SW[Aib][Ala(pyrimidin-5-yl)]Q[Dab]G[dPro(4R-(4-pyridylmethyl))])) the figure was 0.013 nM; with `CC(=O)NCCOc1ccc(C[C@@H]2NC(=O)[C@H]3C[C@@H](Cc4ccncc4)CN3C(=O)CNC(=O)[C@H](CCN)NC(=O)[C@H](CCC(N)=O)NC(=O)[C@H](Cc3cccc(Cl)c3)NC(=O)C(C)(C)NC(=O)[C@H](Cc3c[nH]c4ccccc34)NC(=O)[C@H](CCC(=O)O)NC(=O)C(C)(C)NC(=O)[C@H]([C@@H](C)c3c[nH]c4cccc(F)c34)NC(=O)[C@@H]3C[C@H](F)CN3C(=O)CNC(=O)[C@H](Cc3ccc(C(=O)O)cc3)NC(=O)[C@H](Cc3ccncc3)NC2=O)cc1` [Example 309] (cyclo([AEF](Ac)[4Pal][Phe(4-COOH)]G[Pro(cis-4-F)][Trp(βS-Me,4-F)][Aib]EW[Aib][Phe(3-Cl)]Q[Dab]G[dPro(4R-(4-pyridylmethyl))])), 0.018 nM.
